Experimental data: US20150025233A1, “USE OF LIPID CONJUGATES IN THE TREATMENT OF DISEASES” (priority 2001, published 2015)
Read-outs that look alike come from different tables or passages of the source.

Tested on: DTH-induced mice
Assay: Dermal DTH response, oxalozone-induced ear swelling in mice (Experiments 5.1-5.4)
Format: in vivo, mouse
Details: for inhibition at 3 µmol/kg: Mus musculus
Protocol: Three modes of administration were performed: 1) The Lipid-conjugate in saline was injected intraperitoneally daily beginning day 0 until day 6 (Table 5.1); 2) The Lipid-conjugate in saline was injected subcutaneously into the ear (adjacent to the challenged area) in two injections, either 3 h before application of oxalozone to the ear or 1 h after application of oxalozone to the ear (Table 5.2); 3) EtOH:H2O 1:1 was applied topically to both ears on top of the challenged area daily beginning day 0 until day 6 (Table 5.3); 4) the Lipid-conjugate was applied topically only to the right ear for 5 times 4-6 hours following the challenge (Table 5.4) using either 20 μL of 0.1% DEXPE in 50% EtOH or 20 μl of Dermovat (steroid ointment). In all experiments control Group A (late sensitized only) was treated by topical application of oxalozone to both sides of the ear 24 hours before measuring its swelling. […] Of particular interest are the results presented in Table 5.4, showing that although the topical administration of the drug was unilateral in both cases, the steroid affected both ears, while the topically applied Lipid-conjugate affected only the area to which it was applied, indicative of a lack of systemic infiltration of the Lipid-conjugate in this context.

[1] = Intraperitoneal, fully sensitized, 5 mg (15 μmol/kg)
[2] = Subcutaneous, fully sensitized, 1 mg (3 μmol/kg)
[3] = Unilateral topical, on right ear only, 3 μmol/kg, dermovat

For C[C@H]1C[C@H]2[C@@H]3CCC4=CC(=O)C=C[C@]4(C)[C@@]3(F)[C@@H](O)C[C@]2(C)[C@@]1(O)C(=O)CO [betamethasone], the “Percent inhibition of ear swelling” value [1] was 74%, the “Swelling after sensitization - Swelling of normal ear, Mean ± S.D. (n = 12)” value (from here on “Swelling after sensitization … (n = 12)”) [1] was 6.5 ± 1.35 0.1 mm and the inhibition at 3 µmol/kg (Topical, fully sensitized, 3 μmol/kg, read-out: Percent inhibition of ear swelling) was 60%. For the same compound, the inhibition at 3 µmol/kg (Unilateral topical, on right ear only, 3 μmol/kg, dermovat, read-out: Percent inhibition, Left ear) was 63%, the inhibition at 3 µmol/kg (Unilateral topical, on right ear only, 3 μmol/kg, dermovat, read-out: Percent inhibition, Right ear) was 63% and the “Percent inhibition of ear swelling” value [2] was 72%. For the same compound, the “Swelling after sensitization … (n = 12)” value [2] was 8.1 ± 1.19 0.1 mm, the “Swelling after sensitization … (n = 12)” value (Topical, fully sensitized, 3 μmol/kg) was 10.6 ± 0.84 0.1 mm and the “Swelling after sensitization - Swelling of normal ear, Left ear, Mean ± S.D. (n = 10)” value [3] was 7.0 ± 1.0 0.1 mm. The “Swelling after sensitization - Swelling of normal ear, Right ear, Mean ± S.D. (n = 10)” value [3] was 7.0 ± 1.0 0.1 mm.
